Key:
[1] = tested on: Canis familiaris; experiment: Cmax in beagle dog treated with [14C]casopitant mesylate at 40 mg/kg/day, po administered as repeat dose measured after 26 weeks by HPLC-MS/MS method; format: ADME, organism-based, Canis lupus familiaris; parameters: dose 40 mg/kg/day, dosed compound name [14C]Casopitant, route oral; settings: in vivo, 4368 h
[2] = Drug level in myocardium of beagle dog treated with [14C]casopitant mesylate at 40 mg/kg/day, po administered as repeat dose measured after 6 weeks by HPLC-MS/MS method; format: ADME, organism-based, Canis lupus familiaris; parameters: dosed compound name [14C]Casopitant, route oral; settings: in vivo, 1008 h
[3] = tested on: Plasma; experiment: Drug level in plasma of Sprague-Dawley rat treated with [14C]casopitant mesylate at 60 mg/kg/day, po administered as repeat dose measured after 24 hrs on day 20 by HPLC-MS/MS method relative to [14C]casopitant mesylate radioactivity; format: ADME, organism-based; parameters: dosed compound name [14C]Casopitant, route oral; settings: in vivo
[4] = Drug level in lung of beagle dog treated with [14C]casopitant mesylate at 40 mg/kg/day, po administered as repeat dose measured after 24 hrs on day 14 by HPLC-MS/MS method relative to [14C]casopitant mesylate radioactivity; format: ADME, organism-based, Canis lupus familiaris; parameters: dosed compound name [14C]Casopitant, route oral; settings: in vivo
[5] = tested on: Plasma; experiment: Drug level in plasma of beagle dog treated with [14C]casopitant mesylate at 40 mg/kg/day, po administered as repeat dose measured after 24 hrs on day 14 by HPLC-MS/MS method relative to [14C]casopitant mesylate radioactivity; format: ADME, organism-based, Canis lupus familiaris; parameters: dosed compound name [14C]Casopitant, route oral; settings: in vivo
[6] = Drug level in skeletal muscle of beagle dog treated with [14C]casopitant mesylate at 40 mg/kg/day, po administered as repeat dose measured after 24 hrs on day 14 by HPLC-MS/MS method relative to [14C]casopitant mesylate radioactivity; format: ADME, organism-based, Canis lupus familiaris, Muscle tissue; parameters: dosed compound name [14C]Casopitant, route oral; settings: in vivo
[7] = tested on: Canis familiaris; experiment: Tmax in beagle dog treated with [14C]casopitant mesylate at 40 mg/kg/day, po administered as repeat dose measured after 26 weeks by HPLC-MS/MS method; format: ADME, organism-based, Canis lupus familiaris; parameters: dosed compound name [14C]Casopitant, route oral; settings: in vivo, 4368 h
[8] = Drug level in myocardium of beagle dog treated with [14C]casopitant mesylate at 40 mg/kg/day, po administered as repeat dose measured after 26 weeks by HPLC-MS/MS method; format: ADME, organism-based, Canis lupus familiaris; parameters: dosed compound name [14C]Casopitant, route oral; settings: in vivo, 4368 h
[9] = Drug level in myocardium of beagle dog treated with [14C]casopitant mesylate at 40 mg/kg/day, po administered as repeat dose measured after 13 weeks by HPLC-MS/MS method; format: ADME, organism-based, Canis lupus familiaris; parameters: dosed compound name [14C]Casopitant, route oral; settings: in vivo, 2184 h
[10] = Drug level in kidney of beagle dog treated with [14C]casopitant mesylate at 40 mg/kg/day, po administered as repeat dose measured after 24 hrs on day 14 by HPLC-MS/MS method relative to [14C]casopitant mesylate radioactivity; format: ADME, organism-based, Canis lupus familiaris; parameters: dosed compound name [14C]Casopitant, route oral; settings: in vivo
[11] = Drug level in myocardium of beagle dog treated with [14C]casopitant mesylate at 40 mg/kg/day, po administered as repeat dose measured after 20 weeks by HPLC-MS/MS method; format: ADME, organism-based, Canis lupus familiaris; parameters: dosed compound name [14C]Casopitant, route oral; settings: in vivo, 3360 h
[12] = Drug level in myocardium of beagle dog treated with [14C]casopitant mesylate at 40 mg/kg/day, po administered as repeat dose measured after 22 weeks post dosing withdrawal by HPLC-MS/MS method; format: ADME, organism-based, Canis lupus familiaris; parameters: dosed compound name [14C]Casopitant, route oral; settings: in vivo, 3696 h
[13] = Drug level in myocardium of beagle dog treated with [14C]casopitant mesylate at 40 mg/kg/day, po administered as repeat dose measured after 24 hrs on day 14 by HPLC-MS/MS method relative to [14C]casopitant mesylate radioactivity; format: ADME, organism-based, Canis lupus familiaris; parameters: dosed compound name [14C]Casopitant, route oral; settings: in vivo
[14] = tested on: Canis familiaris; experiment: AUC (0 to t) in beagle dog treated with [14C]casopitant mesylate at 40 mg/kg/day, po administered as repeat dose measured after 26 weeks by HPLC-MS/MS method; format: ADME, organism-based, Canis lupus familiaris, Plasma; parameters: dosed compound name [14C]Casopitant, route oral; settings: in vivo, 4368 h
[15] = tested on: Plasma; experiment: Drug level in beagle dog plasma treated with [14C]casopitant mesylate at 40 mg/kg/day, po administered as repeat dose measured during 24 hrs dosing interval on week 26 by HPLC-MS/MS method; format: ADME, organism-based, Canis lupus familiaris; parameters: dosed compound name [14C]Casopitant, route oral; settings: in vivo

Row | Cmax [1] [ng/mL] | Compound recovery [2] [ng/g] | Compound recovery [3] | Compound recovery [4] | Compound recovery [5] | Compound recovery [6] | Tmax [7] [h] | Compound recovery [8] [ng/g] | Compound recovery [9] [ng/g] | Compound recovery [10] | Compound recovery [11] [ng/g] | Drug concentration in myocardium [12] [ng/g] | Compound recovery [13] | AUCt [14] [ng·h/mL] | Compound recovery ([5]; BLD = below limit of detection) | Compound recovery [15] | Compound
1 | 65.5 | 39180 | Metabolite not detected | 2.3% | – | 2.4% | 24 | 114014 | 62780 | 4.8% | 85193 | 31732 | 3.7% | 1442 | BLD | – | Cc1cc(F)ccc1[C@H]1C[C@@H](NCCN)CCN1C(=O)N(C)[C@H](C)c1cc(C(F)(F)F)cc(C(F)(F)F)c1
2 | 189 | 2379 | – | – | – | – | 1 | 6644 | 5386 | – | 9399 | < 50 | – | 3040 | – | metabolite_detected | CC(=O)NCCN[C@H]1CCN(C(=O)N(C)[C@H](C)c2cc(C(F)(F)F)cc(C(F)(F)F)c2)[C@@H](c2ccc(F)cc2C)C1
3 | 1044 | 29401 | – | – | – | – | 24 | 58640 | 39073 | – | 52699 | 408 | – | 22858 | – | metabolite_detected | Cc1cc(F)ccc1[C@H]1C[C@@H](N)CCN1C(=O)N(C)[C@H](C)c1cc(C(F)(F)F)cc(C(F)(F)F)c1
4 | – | – | 0.2% | 0.6% | 0.9% | 1.3% | – | – | – | 1.1% | – | – | 0.5% | – | – | – | CC(=O)N1CCN([C@H]2CCN(C(=O)N(C)[C@H](C)c3cc(C(F)(F)F)cc(C(F)(F)F)c3)[C@@H](c3ccc(F)cc3C)C2)CC1=O

The remaining lines, values behind:

Row | Compound | Cmax [1] [ng/mL] | Compound recovery [2] [ng/g] | Compound recovery [3] | Compound recovery [4] | Compound recovery [5] | Compound recovery [6] | Tmax [7] [h] | Compound recovery [8] [ng/g] | Compound recovery [9] [ng/g] | Compound recovery [10] | Compound recovery [11] [ng/g] | Drug concentration in myocardium [12] [ng/g] | Compound recovery [13] | AUCt [14] [ng·h/mL] | Compound recovery ([5]; BLD = below limit of detection) | Compound recovery [15]
5 | CC(=O)N1CCN([C@H]2CCN(C(=O)N(C)[C@H](C)c3cc(C(F)(F)F)cc(C(F)(F)F)c3)[C@@H](c3ccc(F)cc3C)C2)CC1O (some centres not stated) | 4357 | 2041 | 0.3% | 1.9% | 4.8% | 4.2% | 4 | 3686 | 4516 | 2.9% | 6554 | < 50 | 2.1% | 61603 | – | –
6 | C[C@@H](NC(N)=O)c1cc(C(F)(F)F)cc(C(F)(F)F)c1 | – | – | 4.6% | Metabolite not detected | Metabolite not detected | Metabolite not detected | – | – | – | Metabolite not detected | – | – | Metabolite not detected | – | – | –
7 | CC(=O)N1CCN([C@H]2CCN(C(=O)N(C)[C@H](C)c3cc(C(F)(F)F)cc(C(F)(F)F)c3)[C@@H](c3ccc(F)cc3C)C2)CC1.CS(=O)(=O)O [CASOPITANT MESYLATE] | 7167 | 467 | 1.5% | 11.9% | 1.9% | 2.4% | 1 | 889 | 1991 | 7% | 2098 | < 50 | 3.7% | 53599 | – | –
